Key:
Assay type in all cases: functional
Mus musculus [1] = test: Number of deaths recorded in mice with P388 leukemia on days 1-5 after intraperitoneal administration of 50 mg/kg of compound in a q.d. 1-9 schedule; 0/6
Mus musculus [2] = species on record: Mus musculus; test: Median life span of the treated mice to that of control mice; 11.1/10.9
Mus musculus [3] = test: Average weight change in treated mice to that of control mice on the same day of administration of 50 mg/kg of compound in a q. d. 1-9 schedule
Mus musculus [4] = test: Life span ratio of mice treated to that of control mice at dose 50 mg/kg, ip; conditions: route intraperitoneal
Mus musculus [5] = test: Number of deaths recorded in mice with P388 leukemia on days 1-5 after intraperitoneal administration of 400 mg/kg of compound in a q.d. 1-5 schedule; 0/6
Mus musculus [6] = test: Number of deaths recorded in mice with P388 leukemia on days 1-5 after intraperitoneal administration of 50 mg/kg of compound in a q.d. 1-9 schedule; 0/5
Mus musculus [7] = test: Number of deaths recorded in mice with P388 leukemia on days 1-5 after intraperitoneal administration of 600 mg/kg of compound in a q.d. 1-5 schedule; 0/6
Mus musculus [8] = test: Median life span of the treated L1210 leukemia mice to that of control mice after intraperitoneal administration of 100 mg/kg of compound in a q.d. 1-9 schedule; 8.3/8.2
Mus musculus [9] = test: Median life span of the treated P388 leukemia mice to that of control mice after intraperitoneal administration of 100 mg/kg of compound in a q.d. 1-9 schedule; 11.4/11.3
Mus musculus [10] = test: Median life span of the treated P388 leukemia mice to that of control mice after intraperitoneal administration of 200 mg/kg of compound in a q.d. 1-5 schedule 12.0/11.9
Mus musculus [11] = test: Median life span of the treated P388 leukemia mice to that of control mice after intraperitoneal administration of 400 mg/kg of compound in a q.d. 1-5 schedule; 14.3/11.9
Mus musculus [12] = test: Median life span of the treated P388 leukemia mice to that of control mice after intraperitoneal administration of 50 mg/kg of compound in a q.d. 1-9 schedule; 10.5/10.9
Mus musculus [13] = test: Median life span of the treated P388 leukemia mice to that of control mice after intraperitoneal administration of 600 mg/kg of compound in a q.d. 1-5 schedule; 13.1/12.0
Mus musculus [14] = test: Number of deaths recorded in mice with L-1210 leukemia on days 1-5 after intraperitoneal administration of 100 mg/kg of compound in a q.d. 1-9 schedule; 0/6
Mus musculus [15] = test: Number of deaths recorded in mice with P388 leukemia on days 1-5 after intraperitoneal administration of 100 mg/kg of compound in a q.d. 1-9 schedule; 0/6
Mus musculus [16] = test: Number of deaths recorded in mice with P388 leukemia on days 1-5 after intraperitoneal administration of 200 mg/kg of compound in a q.d. 1-5 schedule; 0/6
Mus musculus [17] = test: Average weight change in treated L1210 leukemia mice to that of control mice on administration of 100 mg/kg of compound in a q. d. 1-9 schedule
Mus musculus [18] = test: Average weight change in treated P388 leukemia mice to that of control mice on administration of 100 mg/kg of compound in a q. d. 1-9 schedule
Mus musculus [19] = test: Average weight change in treated P388 leukemia mice to that of control mice on administration of 200 mg/kg of compound in a q. d. 1-5 schedule
Mus musculus [20] = test: Average weight change in treated P388 leukemia mice to that of control mice on administration of 400 mg/kg of compound in a q. d. 1-5 schedule
Mus musculus [21] = test: Average weight change in treated P388 leukemia mice to that of control mice on administration of 50 mg/kg of compound in a q. d. 1-9 schedule
Mus musculus [22] = test: Average weight change in treated P388 leukemia mice to that of control mice on administration of 600 mg/kg of compound in a q. d. 1-5 schedule
Mus musculus [23] = test: Life span ratio of L1210 leukemia mice treated to that of control mice at dose 100 mg/kg, ip; conditions: route intraperitoneal
Mus musculus [24] = test: Life span ratio of P388 leukemia mice treated to that of control mice at dose 100 mg/kg, ip; conditions: route intraperitoneal
Mus musculus [25] = test: Life span ratio of P388 leukemia mice treated to that of control mice at dose 200 mg/kg, ip; conditions: route intraperitoneal
Mus musculus [26] = test: Life span ratio of P388 leukemia mice treated to that of control mice at dose 400 mg/kg, ip; conditions: route intraperitoneal
Mus musculus [27] = test: Life span ratio of P388 leukemia mice treated to that of control mice at dose 50 mg/kg, ip; conditions: route intraperitoneal
Mus musculus [28] = test: Life span ratio of P388 leukemia mice treated to that of control mice at dose 600 mg/kg, ip; conditions: route intraperitoneal

In the case of `O=c1[nH]c(=O)n(C2CC(CO)C(O)C2O)cc1F` (stereo not drawn), the No. of deaths (Mus musculus [1]) is reported as 0, the Median life span (Mus musculus [2]) is reported as 11.1 days and the Weight change (Mus musculus [3]) is reported as 0.9 g. The T/C (Mus musculus [4]) was 101%.
`O=c1[nH]c(=O)n([C@H]2C[C@H](O)[C@@H](CO)O2)cc1F` [FLOXURIDINE] showed a No. of deaths (Mus musculus [5]) of 0, a No. of deaths (Mus musculus [6]) of 0 and a No. of deaths (Mus musculus [7]) of 0. The Median life span (Mus musculus [8]) was 8.3 days, the Median life span (Mus musculus [9]) was 11.4 days and the Median life span (Mus musculus [10]) was 12 days. For the same compound, the Median life span (Mus musculus [11]) was 14.3 days, the Median life span (Mus musculus [12]) was 10.5 days and the Median life span (Mus musculus [13]) was 13.1 days. It also gave a No. of deaths (Mus musculus [14]) of 0, a No. of deaths (Mus musculus [15]) of 0 and a No. of deaths (Mus musculus [16]) of 0. The Weight change (Mus musculus [17]) was -0.5 g, the Weight change (Mus musculus [18]) was 0.6 g and the Weight change (Mus musculus [19]) was 0.8 g. It also gave a Weight change (Mus musculus [20]) of -0.3 g, a Weight change (Mus musculus [21]) of 1 g and a Weight change (Mus musculus [22]) of -0.7 g. It also gave a T/C (Mus musculus [23]) of 101%, a T/C (Mus musculus [24]) of 100% and a T/C (Mus musculus [25]) of 100%. It also gave a T/C (Mus musculus [26]) of 120%, a T/C (Mus musculus [27]) of 96% and a T/C (Mus musculus [28]) of 109%.

— ChEMBL document CHEMBL1121697, “Carbocyclic analogues of 5-fluorouracil nucleosides” (1981)
